Source: the supplement of paper PMC10307832

Experiments:
Test in all cases: relative viability (nuclei count vs DMSO), 5 days (fraction); higher = more cells survive
Seliciclib + Vorinostat = compound: CC[C@H](CO)Nc1nc(NCc2ccccc2)c2ncn(C(C)C)c2n1 [Seliciclib] + O=C(CCCCCCC(=O)Nc1ccccc1)NO [Vorinostat] (partner 1 µM)
Method in brief: (§1)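 Values are medians from duplicate plates. Each reflects relative viability, defined as the nuclei count of treated wells over that of vehicle wells. Lung cancer cell lines in 1536-well plates were pin-tool dosed one day after seeding with one drug alone or with a fixed anchor-drug dose plus five library-drug doses (not always all listed) in √10 steps, then fixed, stained and imaged at 4× after 5 days.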

Seliciclib + Navitoclax = compound: CC[C@H](CO)Nc1nc(NCc2ccccc2)c2ncn(C(C)C)c2n1 [Seliciclib] + CC1(C)CCC(c2ccc(Cl)cc2)=C(CN2CCN(c3ccc(C(=O)NS(=O)(=O)c4ccc(N[C@H](CCN5CCOCC5)CSc5ccccc5)c(S(=O)(=O)C(F)(F)F)c4)cc3)CC2)C1 [Navitoclax] (partner 0.5 µM)
Method in brief: as §1

Seliciclib + Dasatinib = compound: CC[C@H](CO)Nc1nc(NCc2ccccc2)c2ncn(C(C)C)c2n1 [Seliciclib] + Cc1nc(Nc2ncc(C(=O)Nc3c(C)cccc3Cl)s2)cc(N2CCN(CCO)CC2)n1 [Dasatinib] (partner 0.075 µM)
Method in brief: as §1

Seliciclib + Crizotinib = compound: CC[C@H](CO)Nc1nc(NCc2ccccc2)c2ncn(C(C)C)c2n1 [Seliciclib] + C[C@@H](Oc1cc(-c2cnn(C3CCNCC3)c2)cnc1N)c1c(Cl)ccc(F)c1Cl [Crizotinib] (partner 1 µM)
Method in brief: as §1

Cell Line | relative viability (Seliciclib + Vorinostat; first compound 0.08 µM) | relative viability (Seliciclib + Vorinostat; first compound 0.253 µM) | relative viability (Seliciclib + Vorinostat; first compound 0.8 µM) | relative viability (Seliciclib + Vorinostat; first compound 2.53 µM) | relative viability (Seliciclib + Vorinostat; first compound 8 µM) | relative viability (Seliciclib + Navitoclax; first compound 0.08 µM) | relative viability (Seliciclib + Navitoclax; first compound 0.253 µM) | relative viability (Seliciclib + Navitoclax; first compound 0.8 µM) | relative viability (Seliciclib + Navitoclax; first compound 8 µM) | relative viability (Seliciclib + Dasatinib; first compound 0.08 µM) | relative viability (Seliciclib + Dasatinib; first compound 0.253 µM) | relative viability (Seliciclib + Dasatinib; first compound 0.8 µM) | relative viability (Seliciclib + Dasatinib; first compound 2.53 µM) | relative viability (Seliciclib + Dasatinib; first compound 8 µM) | relative viability (Seliciclib + Crizotinib; first compound 0.08 µM) | relative viability (Seliciclib + Crizotinib; first compound 0.253 µM) | relative viability (Seliciclib + Crizotinib; first compound 0.8 µM) | relative viability (Seliciclib + Crizotinib; first compound 8 µM) | relative viability (Seliciclib + Navitoclax; first compound 2.53 µM) | relative viability (Seliciclib + Crizotinib; first compound 2.53 µM)
LCLC-97TM1 | 0.803 | 0.706 | 0.82 | 0.106 | 0.222 | 0.324 | 0.462 | 0.414 | 0.223 | 0.758 | 0.965 | 0.732 | 0.333 | 0.704 | 0.295 | 0.366 | 0.463 | 0.252 |  | 
HCC-15 | 0.893 | 0.855 | 0.838 | 0.747 | 0.761 | 0.719 | 0.77 | 0.677 | 0.491 | 0.645 | 0.633 | 0.461 | 0.512 | 0.448 | 0.798 | 0.856 | 0.806 | 0.599 | 0.718 | 0.869
NCI-H647 | 0.615 | 0.268 | 0.639 | 0.299 | 0.128 | 1.02 | 1 | 1.06 | 0.878 | 0.225 |  | 0.209 | 0.166 | 0.189 | 1.07 | 1.01 | 1.04 | 0.852 | 1.12 | 1.29
SW 1573 | 0.943 | 0.687 | 0.708 | 0.632 | 0.346 | 1.09 | 0.732 | 0.901 | 0.655 | 0.608 | 0.525 | 0.524 | 0.35 | 0.301 | 0.823 | 0.759 | 0.77 | 0.642 | 0.86 | 0.847
NCI-H1651 | 0.515 | 0.551 | 0.542 | 0.477 | 0.457 | 0.947 | 0.965 | 0.863 | 0.887 | 0.403 | 0.399 | 0.536 | 0.302 | 0.382 | 0.873 | 0.861 | 0.831 | 0.82 | 1.14 | 0.814
NCI-H2023 | 0.641 | 0.736 | 0.649 | 0.5 | 0.43 | 0.895 | 0.853 | 0.967 | 0.891 | 0.534 | 0.407 | 0.606 | 0.434 | 0.477 | 0.554 | 0.578 | 0.682 | 0.555 | 0.949 | 0.595
COR-L 105 | 0.83 | 0.901 | 0.859 | 0.802 | 0.575 | 0.86 | 0.624 | 0.597 | 0.684 | 0.377 | 0.405 | 0.324 | 0.311 | 0.37 | 0.846 | 0.698 | 0.698 | 0.6 | 0.763 | 0.806
NCI-H1734 | 0.802 | 0.623 | 0.969 | 0.716 | 0.456 | 0.847 | 0.733 | 0.834 | 0.808 | 0.488 | 0.426 | 0.493 | 0.295 | 0.335 | 0.63 | 0.576 | 0.622 | 0.533 | 0.879 | 0.683
NCI-H3122 | 0.925 | 0.979 | 0.759 | 1.09 | 0.86 | 1.02 | 1.07 | 1.01 | 0.903 | 0.719 |  | 0.787 | 0.679 | 0.812 | 0.294 | 0.258 | 0.311 | 0.301 | 1.03 | 0.231
CAL-12T | 0.583 | 0.407 | 0.788 | 0.7 | 0.625 | 1.25 |  | 1.04 | 1.06 | 0.501 | 0.738 | 0.362 | 0.23 | 0.284 | 0.624 |  | 0.846 | 0.461 | 1.03 | 0.687
HCC-78 | 0.393 | 0.518 | 0.389 | 0.396 | 0.32 | 0.73 | 0.969 | 0.738 | 0.557 | 0.427 | 0.416 | 0.371 | 0.259 | 0.28 | 0.364 | 0.333 | 0.327 | 0.274 | 0.703 | 0.262
NCI-H2085 | 0.763 | 0.762 | 0.756 | 0.74 | 0.556 | 1.13 | 1.16 | 1.14 | 0.965 | 0.219 | 0.274 | 0.256 | 0.294 | 0.251 | 0.866 | 0.767 | 0.9 | 0.706 | 1.05 | 0.862
